# Results: patent publication US9199946B2, “Pyrimidinone carboxamide inhibitors of endothelial lipase” (BRISTOL-MYERS SQUIBB COMPANY, priority 2012, dated 2015)
# Molecular target: T1, Endothelial lipase (EL) (Homo sapiens, UniProt Q9Y5X9)
# T1 construct: HT-1080 cells, which were transformed by RAGE technology (Athersys) to overexpress endogenous EL; endogenous in cells; conditioned medium used as the enzyme source
# T1 sequence (Q9Y5X9 21-500): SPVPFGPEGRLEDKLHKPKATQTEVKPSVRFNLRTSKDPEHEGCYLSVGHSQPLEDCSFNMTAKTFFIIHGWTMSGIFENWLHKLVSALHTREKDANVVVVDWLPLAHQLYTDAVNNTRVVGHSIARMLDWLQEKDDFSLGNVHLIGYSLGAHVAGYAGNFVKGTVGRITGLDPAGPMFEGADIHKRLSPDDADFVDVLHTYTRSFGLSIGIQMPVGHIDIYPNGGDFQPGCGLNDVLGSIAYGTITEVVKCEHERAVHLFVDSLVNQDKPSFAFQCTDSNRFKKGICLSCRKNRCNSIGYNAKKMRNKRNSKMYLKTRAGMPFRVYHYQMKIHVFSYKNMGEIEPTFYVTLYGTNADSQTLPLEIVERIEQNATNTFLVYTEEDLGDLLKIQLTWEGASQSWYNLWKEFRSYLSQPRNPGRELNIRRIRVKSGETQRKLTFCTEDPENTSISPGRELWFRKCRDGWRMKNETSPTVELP
# Assay: Endothelial lipase (EL) enzymatic assay with fluorescent substrate A10070 in DMPG vesicles
# Assay type: biochemical
# Settings: conditioned media from HT-1080 cells overexpressing endogenous EL; 20 min preincubation at 37° C.; read-out: EL IC50
# Method in brief: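 The enzyme source was conditioned medium from HT-1080 cells engineered to overexpress endogenous EL. It was preincubated with compound for 20 min at 37 °C in 50 mM HEPES pH 8.0, 50 mM NaCl, 1 mM CaCl2. Reactions started with DMPG vesicles carrying FRET substrate A10070 (mole fraction 0.05). The rate was taken from the linear slope of fluorescence (ex 488/em 530 nm) over 10 min.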
row,IC50,SMILES
1,1.42 µM,"O=C(O)Cn1c(=O)[nH]c(C(=O)N[C@H]2CC[C@@H](c3ccccc3)CC2)c(O)c1=O [Example 267, 2-(5-Hydroxy-2,6-dioxo-4-((cis-4-phenylcyclohexyl)carbamoyl)-2,3-dihydropyrimidin-1(6H)-yl)acetic acid]"
2,0.01 µM,"O=C(N[C@@H]1CCCc2c(OCc3ccccc3)cccc21)c1[nH]c(=O)[nH]c(=O)c1O [Example 258, (R)-N-(5-(benzyloxy)-1,2,3,4-tetrahydronaphthalen-1-yl)-5-hydroxy-2,6-dioxo-1,2,3,6-tetrahydropyrimidine-4-carboxamide]"
3,0.848 µM,"Nc1c(C(=O)N[C@@H]2CCc3c(-c4ccccc4)cccc32)[nH]c(=O)[nH]c1=O [Example 137, (R)-5-amino-2,6-dioxo-N-(4-phenyl-2,3-dihydro-1H-inden-1-yl)-1,2,3,6-tetrahydropyrimidine-4-carboxamide]"
4,0.018 µM,"Nc1c(C(=O)N[C@@H]2CCCc3ccc(C(F)(F)F)cc32)[nH]c(=O)[nH]c1=O [Example 53, (R)-5-amino-2,6-dioxo-N-(7-(trifluoromethyl)-1,2,3,4-tetrahydronaphthalen-1-yl)-1,2,3,6-tetrahydropyrimidine-4-carboxamide]"

# Same assay, conditions: range observed in the EL assay; read-out: EL IC50 values
row,SMILES,IC50
1,"Nc1c(C(=O)N[C@H]2C[C@@H](c3ccccc3)c3ccccc32)[nH]c(=O)[nH]c1=O [Example 28, 5-amino-2,6-dioxo-N-((1S,3S)-3-phenyl-2,3-dihydro-1H-inden-1-yl)-1,2,3,6-tetrahydropyrimidine-4-carboxamide]",≤ 10 µM
2,"COc1ccc2c(c1)CCCC2NC(=O)c1[nH]c(=O)[nH]c(=O)c1N (single isomer, unassigned; enantiomer a) [Example 194, 5-amino-N-(6-methoxy-1,2,3,4-tetrahydronaphthalen-1-yl)-2,6-dioxo-1,2,3,6-tetrahydropyrimidine-4-carboxamide (Enantiomer A)]",≤ 10 µM
3,"Nc1c(C(=O)NC2CCOc3ccccc32)[nH]c(=O)[nH]c1=O (single isomer, unassigned; enantiomer b) [Example 197, 5-amino-N-(chroman-4-yl)-2,6-dioxo-1,2,3,6-tetrahydropyrimidine-4-carboxamide (Enantiomer B)]",≤ 10 µM
4,"O=C(N[C@H]1C[C@@H](c2ccccc2)c2ccccc21)c1[nH]c(=O)[nH]c(=O)c1O [Example 247, 5-hydroxy-2,6-dioxo-N-((1S,3S)-3-phenyl-2,3-dihydro-1H-inden-1-yl)-1,2,3,6-tetrahydropyrimidine-4-carboxamide]",≤ 10 µM
5,"COC(=O)[C@@H]1C[C@@H](NC(=O)c2[nH]c(=O)[nH]c(=O)c2N)c2ccccc2[C@H]1c1ccccc1 [Example 23, (1R,2R,4R)-methyl 4-(5-amino-2,6-dioxo-1,2,3,6-tetrahydropyrimidine-4-carboxamido)-1-phenyl-1,2,3,4-tetrahydronaphthalene-2-carboxylate]",≤ 10 µM
6,"O=C(N[C@H]1CC[C@@H](c2ccccc2)CC1)c1[nH]c(=O)[nH]c(=O)c1NCc1ccccc1C(F)(F)F [Example 215, 2,6-dioxo-N-(cis-4-phenylcyclohexyl)-5-(2-(trifluoromethyl)benzylamino)-1,2,3,6-tetrahydropyrimidine-4-carboxamide]",≤ 10 µM
7,"COc1ccc2c(c1)C(NC(=O)c1[nH]c(=O)[nH]c(=O)c1N)CC2 (stereo not drawn) [Example 11, 5-amino-N-(6-methoxy-2,3-dihydro-1H-inden-1-yl)-2,6-dioxo-1,2,3,6-tetrahydropyrimidine-4-carboxamide]",≤ 10 µM
8,"Nc1c(C(=O)N[C@@H]2CCCc3c(-c4ccccc4)cccc32)[nH]c(=O)[nH]c1=O [Example 112, (R)-5-amino-2,6-dioxo-N-(5-phenyl-1,2,3,4-tetrahydronaphthalen-1-yl)-1,2,3,6-tetrahydropyrimidine-4-carboxamide]",≤ 10 µM
9,"O=C(N[C@H]1CC[C@@H](c2ccccc2)CC1)c1[nH]c(=O)[nH]c(=O)c1NCCCc1ccccc1 [Example 207, 2,6-dioxo-N-(cis-4-phenylcyclohexyl)-5-(3-phenylpropylamino)-1,2,3,6-tetrahydropyrimidine-4-carboxamide]",≤ 10 µM
10,"Nc1c(C(=O)N[C@@H]2CC[C@H](c3ccccc3)c3ccccc32)[nH]c(=O)[nH]c1=O [Example 19, 5-amino-2,6-dioxo-N-((1R,4R)-4-phenyl-1,2,3,4-tetrahydronaphthalen-1-yl)-1,2,3,6-tetrahydropyrimidine-4-carboxamide]",≤ 10 µM
11,"CN(C)c1cccc(-c2ccc([C@@H]3CC[C@H](NC(=O)c4[nH]c(=O)[nH]c(=O)c4N)C3)cc2)c1 [Example 166, 5-amino-N-((1S,3R)-3-(3′-(dimethylamino)biphenyl-4-yl)cyclopentyl)-2,6-dioxo-1,2,3,6-tetrahydropyrimidine-4-carboxamide]",≤ 10 µM
12,"Nc1c(C(=O)N[C@H]2CC[C@@H](NC(=O)OCc3ccccc3)CC2)[nH]c(=O)[nH]c1=O [Example 119, benzyl cis-4-(5-amino-2,6-dioxo-1,2,3,6-tetrahydropyrimidine-4-carboxamido)cyclohexylcarbamate]",≤ 10 µM
13,"Nc1c(C(=O)N[C@@H]2CCCc3c(OCC4CCCC4)cccc32)[nH]c(=O)[nH]c1=O [Example 113, (R)-5-amino-N-(5-(cyclopentylmethoxy)-1,2,3,4-tetrahydronaphthalen-1-yl)-2,6-dioxo-1,2,3,6-tetrahydropyrimidine-4-carboxamide]",≤ 10 µM
14,"Nc1c(C(=O)N[C@@H]2CCCc3c(Oc4ccccc4)cccc32)[nH]c(=O)[nH]c1=O [Example 84, (R)-5-amino-2,6-dioxo-N-(5-phenoxy-1,2,3,4-tetrahydronaphthalen-1-yl)-1,2,3,6-tetrahydropyrimidine-4-carboxamide]",≤ 10 µM
15,"O=C(N[C@H]1CC[C@@H](c2ccccc2)CC1)c1[nH]c(=O)[nH]c(=O)c1O [Example 238, Hydroxy-2,6-dioxo-N-(cis-4-phenylcyclohexyl)-1,2,3,6-tetrahydropyrimidine-4-carboxamide]",≤ 10 µM
16,"COc1ccc(-c2ccc([C@@H]3CC[C@H](NC(=O)c4[nH]c(=O)[nH]c(=O)c4N)C3)cc2)cc1OC [Example 161, 5-amino-N-((1S,3R)-3-(3′,4′-dimethoxybiphenyl-4-yl)cyclopentyl)-2,6-dioxo-1,2,3,6-tetrahydropyrimidine-4-carboxamide]",≤ 10 µM
17,"Cc1nn(C)c(C)c1-c1ccc([C@@H]2CC[C@H](NC(=O)c3[nH]c(=O)[nH]c(=O)c3N)C2)cc1 [Example 159, 5-amino-2,6-dioxo-N-((1S,3R)-3-(4-(1,3,5-trimethyl-1H-pyrazol-4-yl)phenyl)cyclopentyl)-1,2,3,6-tetrahydropyrimidine-4-carboxamide]",≤ 10 µM

# Results, then the compound that gave them:
row,IC50,SMILES
1,≤ 10 µM,"O=C(N[C@H]1CC[C@@H](c2ccccc2)CC1)c1[nH]c(=O)[nH]c(=O)c1NCC(F)(F)F [Example 228, 2,6-dioxo-N-(cis-4-phenylcyclohexyl)-5-(2,2,2-trifluoroethylamino)-1,2,3,6-tetrahydropyrimidine-4-carboxamide]"
2,≤ 10 µM,"Nc1c(C(=O)N[C@@H]2CCc3ccccc32)[nH]c(=O)[nH]c1=O [Example 9, (R)-5-amino-N-(2,3-dihydro-1H-inden-1-yl)-2,6-dioxo-1,2,3,6-tetrahydropyrimidine-4-carboxamide]"
3,≤ 10 µM,"O=C(N[C@H]1CCCc2c(OCC(F)(F)F)cccc21)c1[nH]c(=O)[nH]c(=O)c1O [Example 246, (S)-5-hydroxy-2,6-dioxo-N-(5-(2,2,2-trifluoroethoxy)-1,2,3,4-tetrahydronaphthalen-1-yl)-1,2,3,6-tetrahydropyrimidine-4-carboxamide]"
4,≤ 10 µM,"O=C(N[C@@H]1CC[C@@H](C(=O)NCc2nc3ccccc3s2)C1)c1[nH]c(=O)[nH]c(=O)c1O [Example 296, N-((1R,3R)-3-(benzo[d]thiazol-2-ylmethylcarbamoyl)cyclopentyl)-5-hydroxy-2,6-dioxo-1,2,3,6-tetrahydropyrimidine-4-carboxamide]"
5,≤ 10 µM,"COc1ccccc1C1CCC(NC(=O)c2[nH]c(=O)[nH]c(=O)c2O)C1 (stereo not drawn) [Example 292, 5-hydroxy-N-(3-(2-methoxyphenyl)cyclopentyl)-2,6-dioxo-1,2,3,6-tetrahydropyrimidine-4 carboxamide]"
6,≤ 10 µM,"Nc1c(C(=O)NC2CCC(c3cnn(Cc4ccccc4)c3)C2)[nH]c(=O)[nH]c1=O (stereo not drawn) [Example 102, 5-amino-N-(3-(1-benzyl-1H-pyrazol-4-yl)cyclopentyl)-2,6-dioxo-1,2,3,6-tetrahydropyrimidine-4-carboxamide]"
7,≤ 10 µM,"COc1ccc2c(c1)CC[C@H]2NC(=O)c1[nH]c(=O)[nH]c(=O)c1N [Example 70, (R)-5-amino-N-(5-methoxy-2,3-dihydro-1H-inden-1-yl)-2,6-dioxo-1,2,3,6-tetrahydropyrimidine-4-carboxamide]"
8,≤ 10 µM,"COC(=O)C1CCCC(NC(=O)c2[nH]c(=O)[nH]c(=O)c2N)C1 (stereo not drawn) [Example 58, methyl 3-(5-amino-2,6-dioxo-1,2,3,6-tetrahydropyrimidine-4-carboxamido) cyclohexanecarboxylate]"
9,≤ 10 µM,"O=C(O)Cn1c(=O)[nH]c(C(=O)N[C@H]2CC[C@@H](c3ccccc3)CC2)c(O)c1=O [Example 267, 2-(5-Hydroxy-2,6-dioxo-4-((cis-4-phenylcyclohexyl)carbamoyl)-2,3-dihydropyrimidin-1(6H)-yl)acetic acid]"
10,≤ 10 µM,"O=C(N[C@@H]1CCCc2c(OCc3ccccc3)cccc21)c1[nH]c(=O)[nH]c(=O)c1O [Example 258, (R)-N-(5-(benzyloxy)-1,2,3,4-tetrahydronaphthalen-1-yl)-5-hydroxy-2,6-dioxo-1,2,3,6-tetrahydropyrimidine-4-carboxamide]"
11,≤ 10 µM,"Nc1c(C(=O)N[C@@H]2CCc3c(-c4ccccc4)cccc32)[nH]c(=O)[nH]c1=O [Example 137, (R)-5-amino-2,6-dioxo-N-(4-phenyl-2,3-dihydro-1H-inden-1-yl)-1,2,3,6-tetrahydropyrimidine-4-carboxamide]"
12,≤ 10 µM,"Nc1c(C(=O)N[C@@H]2CCCc3ccc(C(F)(F)F)cc32)[nH]c(=O)[nH]c1=O [Example 53, (R)-5-amino-2,6-dioxo-N-(7-(trifluoromethyl)-1,2,3,4-tetrahydronaphthalen-1-yl)-1,2,3,6-tetrahydropyrimidine-4-carboxamide]"
